Converted amounts (≈) assume the structure as drawn. “And” between values parts separate entries of the source, which are not always exact repeats. Identical values can stand only once. Like-named read-outs stand apart in the source and are kept apart here.
What was measured:
PfLysRS = PfLysRS (Plasmodium falciparum, UniProt Q8IDJ8); conditions: cited from earlier work
[1] = target: Schistosoma mansoni (Sm) lysyl-tRNA synthetase; conditions: cited from earlier work
[2] = tested on: blood and liver stages of Plasmodium; conditions: cited from earlier work
[3] = cited from earlier work
[4] = target: T1, Plasmodium falciparum lysyl t-RNA synthetase (Pf-KRS1) (Plasmodium falciparum, UniProt Q8IDJ8); experiment: Pf-KRS1 inhibition biochemical assay (Kinase-Glo, ATP depletion)
T1 construct: Pf KRS1-; made in house; host or cells: E. coli BL21 (DE3)
T1 sequence (Q8IDJ8 entry or part of it, looked up, natural form): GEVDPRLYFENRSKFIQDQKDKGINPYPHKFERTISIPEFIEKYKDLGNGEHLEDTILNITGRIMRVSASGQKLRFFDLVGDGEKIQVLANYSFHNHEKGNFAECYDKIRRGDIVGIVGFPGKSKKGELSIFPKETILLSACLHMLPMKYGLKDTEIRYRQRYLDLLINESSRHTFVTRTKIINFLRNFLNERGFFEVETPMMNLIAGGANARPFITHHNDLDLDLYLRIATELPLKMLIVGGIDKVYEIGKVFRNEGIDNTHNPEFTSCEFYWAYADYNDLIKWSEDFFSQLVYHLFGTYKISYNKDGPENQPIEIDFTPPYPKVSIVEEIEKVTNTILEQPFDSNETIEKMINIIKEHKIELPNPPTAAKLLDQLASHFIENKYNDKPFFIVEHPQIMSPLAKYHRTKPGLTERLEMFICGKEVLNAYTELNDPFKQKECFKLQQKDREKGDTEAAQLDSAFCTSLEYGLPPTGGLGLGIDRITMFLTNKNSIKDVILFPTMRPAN
How it was run: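 Recombinant Pf-KRS1 (75 nM working concentration) in HEPES/KOH/MgCl2/KCl buffer with 3 μM ATP, 60 μM L-lysine, 0.4 mg/ml yeast tRNA and pyrophosphatase; compounds at 50 μM–2.5 nM final. Reaction ran 5 h at room temperature, then remaining ATP was read by Kinase-Glo luminescence. IC50 came from nonlinear fits of % inhibition against controls.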

[5] = tested on: Plasmodium falciparum strain 3D7; experiment: Plasmodium falciparum 3D7 in vitro growth inhibition (SYBRgreen I); assay type: cell-based; conditions: Plasmodium falciparum, 3D7; read-out: pEC50 for Pf 3D7 (converted)
How it was run: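 10-point, 1-in-3 dilution series from a top concentration of 50 μM; parasite growth read as SYBRgreen I fluorescence on double-stranded DNA (ex 485/em 528 nm). EC50 = concentration causing 50% parasite death, from at least 3 independent experiments.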

Cryptosporidium parvum [6] = experiment: In vitro Crytosporidium inhibition assay; assay type: cell-based; conditions: for EC50: Cryptosporidium parvum, read-out: Cryptosporidium parvum pEC50 (converted)
Text: Assay Method for Measurement of In Vitro Inhibition of Crytosporidium.
These experiments were run in accordance with the method of Besssoff et. al. Antimicrob. Agents Chemother. 2013, 57:1804-1814. Results from these experiments are provided in the Experimental Results hereinafter.

Leishmania donovani [7] = experiment: Leishmania donovani intramacrophage inhibition assay (Ld-INMAC); assay type: cell-based; conditions: intramacrophage amastigotes in THP-1 cells, read-out: Ld-INMAC pEC50 (converted)
Protocol: Assay Method for Measurement of In Vitro Inhibition of Leishmania donovani.
These experiments were run in accordance with the method as detailed herein and results from these experiments are provided in the Experimental Results hereinafter.
The intramacrophage Leishmania assay was performed as described in de Rycker et al (Antimicrob Agents Chemother, 2013 July; 57(7):2913-22. doi: 10.1128/AAC.02398-12). Briefly, 1 μl of compound was pre-dispensed into 384 well sterile intermediary plates. For single point screening, amphotericin B was added to all wells of column 24 as a positive control (final concentration 2 μM) and DMSO to column 23. For potency determinations, ten-point, one in three dilution curves were created with the highest concentration being 50 μM and on each plate a control curve of amphotericin B was included. Controls were as follows: columns 11 and 12: DMSO, columns 23 and 24: amphotericin B (final concentration 2 μM). To the intermediary plates, 100 μl of THP-1 media was added and plates were shaken for >5 min to ensure complete mixing. THP-1 cells (8,000 per well, 50 μl) were plated into black clear-bottom 384 well plates (Corning) in presence of 10 nM PMA. After 20 min at room temperature, the plates were incubated at 37° C. under 5% CO2 in a humidified incubator for 75 h. The cells were then washed with […] sterile phosphate buffered saline (PBS) supplemented with 1 mM CaCl2, 0.5 mM MgCl2, 0.1% (w/v) bovine serum albumin (PBS-A) and amastigotes were added to all wells at a multiplicity of infection of 5 (40,000 amastigotes per well). After 40 min at room temperature, plates were returned to the incubator. Amastigotes were incubated in the presence of macrophages for 16 h. Any remaining extracellular amastigotes were subsequently removed with an overflow wash of 1 ml PBS-A per well (wash buffer is being aspirated from the top of the well as it is being dispensed) followed by addition of 25 μl of the compound pre-dilutions using a Matrix Hydra DT pipetting station. The final dilution of each compound was 200-fold. Plates were incubated for 72 h and then washed (250 μl PBS-A) and fixed (4% (v/v) formaldehyde-PBS, 30 min, room temperature). After fixation, the wells were washed with 250 μl PBS, stained (10 μg/ml DAPI, 0.4 μg ml-1 HCS Cellmask Deep Red in PBS+0.1% (v/v) Triton X-100, 30 min, room temperature) and washed with 250 μl PBS. Finally, PBS+0.05% (v/v) thimerosal was added to the wells, the plates were sealed and imaged on a high-content microscope (GE IN Cell 1000 or GE IN Cell 2000) using a 10× objective. Image analysis was carried out with GE IN Cell Analyzer 1000 Workstation using the “Multi Target Analysis” module. […]

THP-1 cells = experiment: THP-1 host cell count in intramacrophage Leishmania assay; assay type: cell-based; conditions: Homo sapiens, host cell toxicity, read-out: THP1 pEC50 (converted)
Protocol: The intramacrophage Leishmania assay was performed as described in de Rycker et al (Antimicrob Agents Chemother, 2013 July; 57(7):2913-22. doi: 10.1128/AAC.02398-12). Briefly, 1 μl of compound was pre-dispensed into 384 well sterile intermediary plates. For single point screening, amphotericin B was added to all wells of column 24 as a positive control (final concentration 2 μM) and DMSO to column 23. For potency determinations, ten-point, one in three dilution curves were created with the highest concentration being 50 μM and on each plate a control curve of amphotericin B was included. Controls were as follows: columns 11 and 12: DMSO, columns 23 and 24: amphotericin B (final concentration 2 μM). To the intermediary plates, 100 μl of THP-1 media was added and plates were shaken for >5 min to ensure complete mixing. THP-1 cells (8,000 per well, 50 μl) were plated into black clear-bottom 384 well plates (Corning) in presence of 10 nM PMA. After 20 min at room temperature, the plates were incubated at 37° C. under 5% CO2 in a humidified incubator for 75 h. The cells were then washed with […] sterile phosphate buffered saline (PBS) supplemented with 1 mM CaCl2, 0.5 mM MgCl2, 0.1% (w/v) bovine serum albumin (PBS-A) and amastigotes were added to all wells at a multiplicity of infection of 5 (40,000 amastigotes per well). After 40 min at room temperature, plates were returned to the incubator. Amastigotes were incubated in the presence of macrophages for 16 h. Any remaining extracellular amastigotes were subsequently removed with an overflow wash of 1 ml PBS-A per well (wash buffer is being aspirated from the top of the well as it is being dispensed) followed by addition of 25 μl of the compound pre-dilutions using a Matrix Hydra DT pipetting station. The final dilution of each compound was 200-fold. Plates were incubated for 72 h and then washed (250 μl PBS-A) and fixed (4% (v/v) formaldehyde-PBS, 30 min, room temperature). After fixation, the wells were washed with 250 μl PBS, stained (10 μg/ml DAPI, 0.4 μg ml-1 HCS Cellmask Deep Red in PBS+0.1% (v/v) Triton X-100, 30 min, room temperature) and washed with 250 μl PBS. Finally, PBS+0.05% (v/v) thimerosal was added to the wells, the plates were sealed and imaged on a high-content microscope (GE IN Cell 1000 or GE IN Cell 2000) using a 10× objective. Image analysis was carried out with GE IN Cell Analyzer 1000 Workstation using the “Multi Target Analysis” module. Settings for segmentation were as follows: nuclei: minimum area: 142.384 μm^2, sensitivity: 81, method: top-hat; cells: characteristic area: 2500 μm^2, sensitivity: 60, method: multiscale top-hat; organelles (amastigotes): granule size 1-3, 3 scales, sensitivity: 90, detection in entire cell. […]

Leishmania donovani [8] = experiment: Ld-cAxAm-TP-pMIC assay; assay type: cell-based; conditions: read-out: Ld-cAxAm-TP-pMIC pEC50 (converted)
Hep G2 = Hep G2 in-vitro cytotoxicity assay; assay type: cell-based; conditions: Homo sapiens, HepG2, read-out: Hs HEPG2 pEC50 (converted)
How it was run: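 Hep G2 human hepatocyte carcinoma cells serve as a general mammalian cell toxicity indicator, following the Mersch-Sundermann procedure.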

Plasmodium falciparum = experiment: Anti-malarial in vivo efficacy, Plasmodium falciparum SCID mouse model; conditions: 20 mg/kg, 4 days
Text: Measurement of Anti-Malarial In Vivo Efficacy The in vivo measurement of the potential efficacy of compounds of formula (I) in a malarial model has been carried out. These in vivo experiments were run in accordance with the method published in Jimenez-Diaz, M. B. et al., Antimicrob. Agents Chemother. 53, 4533-4536, (2009). Results from these experiments are provided in the Experimental Results hereinafter.

M. tuberculosis H37Rv = experiment: In vitro inhibition of M. tuberculosis H37Rv (MIC, resazurin); assay type: cell-based; conditions: Mycobacterium tuberculosis, read-out: Mtb MIC
Cryptosporidium parvum [9] = experiment: Anti-Cryptosporidium in vivo efficacy, NOD SCID gamma mouse model; conditions: 50 mg/kg, twice a day (bid), 4 days
Text: Measurement of Anti-Cryptosporidium In Vivo Efficacy
The in vivo measurement of the potential efficacy of compounds of formula (I) in two cryptosporidium models has been carried out.
The cryptosporidiosis NOD SCID gamma mouse model were run as follows: Male NOD SCID gamma mice (NOD.Cg-Prkdc^scid Il2rg^tm1Wjl/SzJ, Jackson Labs) were infected approximately 2 weeks post weaning with 10^5 C. parvum Iowa strain oocysts by oral gavage. Four mice were used per experimental group. This establishes a chronic, asymptomatic infection of the small intestine, cecum, and biliary tree. Fecal parasite shedding is monitored by quantitative PCR to amplify C. parvum DNA. One week after infection (which is the timing with which shedding becomes uniformly detected), compounds are dosed by oral gavage based. Treatment continued for four days total. Fecal oocyst shedding is reported on day 1 (7 days after initial infection with sample taken just prior to the first dose of compound) and day 5 (1 day after completion of the last dose).

[10] = read-out: Pf-KRS pIC50 (converted)

Sequence of PfLysRS (Q8IDJ8 1-583): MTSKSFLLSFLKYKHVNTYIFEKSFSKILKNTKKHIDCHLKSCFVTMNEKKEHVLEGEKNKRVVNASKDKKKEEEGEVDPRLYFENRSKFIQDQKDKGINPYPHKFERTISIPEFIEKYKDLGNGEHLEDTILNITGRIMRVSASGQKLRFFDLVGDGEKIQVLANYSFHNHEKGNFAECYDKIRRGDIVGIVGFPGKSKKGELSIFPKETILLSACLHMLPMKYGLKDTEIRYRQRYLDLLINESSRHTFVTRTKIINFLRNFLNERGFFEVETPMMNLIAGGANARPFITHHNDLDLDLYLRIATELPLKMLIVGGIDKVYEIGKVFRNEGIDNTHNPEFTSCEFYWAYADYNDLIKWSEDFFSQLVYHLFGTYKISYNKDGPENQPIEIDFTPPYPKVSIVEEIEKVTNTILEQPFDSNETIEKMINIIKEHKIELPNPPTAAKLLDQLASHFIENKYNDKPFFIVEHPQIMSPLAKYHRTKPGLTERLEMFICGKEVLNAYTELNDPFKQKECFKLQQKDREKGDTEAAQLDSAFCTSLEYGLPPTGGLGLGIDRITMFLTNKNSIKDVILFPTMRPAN

Row | Compound | selectivity vs HsLysRS (PfLysRS) | IC50 ([1]; Sharma et al., read-out: Sm LysRS IC50) [nM] | selectivity vs HsLysRS ([1]; Sm LysRS vs HsLysRS) | inhibition of blood and liver stages of Plasmodium [2] | bioavailability [3] | IC50 [4, 10] | EC50 [5] [nM] | EC50 (Cryptosporidium parvum [6]) [nM] | EC50 (Leishmania donovani [7]) [nM] | EC50 (THP-1 cells) [nM] | EC50 (Leishmania donovani [8]) [nM] | EC50 (Hep G2) [nM] | Cryptosporidium parvum pEC50 (Cryptosporidium parvum [6]) | % Reduction in parasitaemia (Plasmodium falciparum) [%] | MIC (M. tuberculosis H37Rv) [µM] | % Reduction in parasitaemia (Cryptosporidium parvum [9]) [%] | IC50 ([4]; Pf-KRS pIC50) [nM]
1 | C[C@H]1CCC[C@H](C[C@H]2Cc3cc(O)cc(O)c3C(=O)O2)O1 [Cladosporin, cladosporin] | more than 100 fold | 97 | more than 60 fold | nanomolar inhibitor | poorly bioavailable | – | – | – | – | – | – | – | – | – | – | – | –
2 | O=C(NCC1(O)CCCCC1)c1cc(=O)c2cc(Cl)ccc2o1 [Example 48, 6-chloro-N-[(1-hydroxycyclohexyl)methyl]-4-oxo-chromene-2-carboxamide] | – | – | – | – | – | 126 nM | 398 | 63.1 | 7940 | > 50100 | 10000 | 31600 | – | – | – | – | –
3 | O=C(NCC1(O)CCC(F)(F)CC1)c1cc(=O)c2cc(F)ccc2o1 [Example 54, N-[(4,4-difluoro-1-hydroxy-cyclohexyl)methyl]-6-fluoro-4-oxo-chromene-2-carboxamide] | – | – | – | – | – | 126 nM and 251 nM | – | 1260 | 31600 | 50100 | 12600 | 50100 | 5.8 | 99.2 | – | – | –
4 | O=C(NCC1(O)CCCCC1)c1cc(=O)c2cc(F)cc(O)c2o1 [Example 74, 6-fluoro-8-hydroxy-N-((1-hydroxycyclohexyl)methyl)-4-oxo-4H-chromene-2-carboxamide] | – | – | – | – | – | 50.1 nM | 63.1 | 39.8 | – | – | – | 31600 | – | – | 25 (≈ 8.38 µg/mL) | 92.5 | –
5 | O=C(NCC1(O)CCCCC1)c1cc(=O)c2ccc(F)c(O)c2o1 [Example 77, 7-fluoro-8-hydroxy-N-((1-hydroxycyclohexyl)methyl)-4-oxo-4H-chromene-2-carboxamide] | – | – | – | – | – | – | 126 | 126 | – | – | – | 39800 | – | – | – | 99.6 | 100
6 | O=C(NCC1CCCCC1)c1cc(=O)c2ccc(F)c(O)c2o1 [Example 78, N-(cyclohexylmethyl)-7-fluoro-8-hydroxy-4-oxo-4H-chromene-2-carboxamide] | – | – | – | – | – | 79.4 nM | 100 | 1 | – | – | – | 20000 | – | – | – | 99.4 | –
7 | O=C(NCC1(O)CCCCC1)c1cc(=O)c2cc(O)cc(F)c2o1 [Example 81, 8-fluoro-6-hydroxy-N-((1-hydroxycyclohexyl)methyl)-4-oxo-4H-chromene-2-carboxamide] | – | – | – | – | – | 200 nM | – | 126 | 20000 | > 50100 | 6310 | 15800 | – | – | – | – | –

From US11485720B2, “Anti-infective agents” (University of Dundee, priority 2016, dated 2022)
